According to patent US20230055237A1, “COMPOUNDS AND METHODS FOR THE TREATMENT OF CYSTIC FIBROSIS” (Flatley Discovery Lab, LLC, priority 2019, published 2023):

Target: T1, CFTR (Homo sapiens, UniProt P13569, DEL508-508)
T1 construct: Primary CF airway epithelial cells were obtained from the UNC Cystic Fibrosis Tissue Procurement and Cell Culture Core; host or cells: primary CF airway epithelial cells, differentiated at the air-liquid interface
Experiment: Equivalent current assay in primary CF airway epithelial cells (NAUC, combination with 1st site corrector FDL169 or VX-809)
Assay type: cell-based
Details: 37° C., 24 h

[1] = test compound 1 μM in combination with 1st site corrector VX-809 (3 μM)
[2] = test compound 3 μM in combination with 1st site corrector VX-809 (3 μM)
[3] = test compound 10 μM in combination with 1st site corrector VX-809 (3 μM)
[4] = test compound 1 μM in combination with 1st site corrector FDL169 (3 μM)
[5] = test compound 3 μM in combination with 1st site corrector FDL169 (3 μM)
[6] = test compound 10 μM in combination with 1st site corrector FDL169 (3 μM)

T1 sequence (P13569 with tags, fused parts or gaps DEL508-508): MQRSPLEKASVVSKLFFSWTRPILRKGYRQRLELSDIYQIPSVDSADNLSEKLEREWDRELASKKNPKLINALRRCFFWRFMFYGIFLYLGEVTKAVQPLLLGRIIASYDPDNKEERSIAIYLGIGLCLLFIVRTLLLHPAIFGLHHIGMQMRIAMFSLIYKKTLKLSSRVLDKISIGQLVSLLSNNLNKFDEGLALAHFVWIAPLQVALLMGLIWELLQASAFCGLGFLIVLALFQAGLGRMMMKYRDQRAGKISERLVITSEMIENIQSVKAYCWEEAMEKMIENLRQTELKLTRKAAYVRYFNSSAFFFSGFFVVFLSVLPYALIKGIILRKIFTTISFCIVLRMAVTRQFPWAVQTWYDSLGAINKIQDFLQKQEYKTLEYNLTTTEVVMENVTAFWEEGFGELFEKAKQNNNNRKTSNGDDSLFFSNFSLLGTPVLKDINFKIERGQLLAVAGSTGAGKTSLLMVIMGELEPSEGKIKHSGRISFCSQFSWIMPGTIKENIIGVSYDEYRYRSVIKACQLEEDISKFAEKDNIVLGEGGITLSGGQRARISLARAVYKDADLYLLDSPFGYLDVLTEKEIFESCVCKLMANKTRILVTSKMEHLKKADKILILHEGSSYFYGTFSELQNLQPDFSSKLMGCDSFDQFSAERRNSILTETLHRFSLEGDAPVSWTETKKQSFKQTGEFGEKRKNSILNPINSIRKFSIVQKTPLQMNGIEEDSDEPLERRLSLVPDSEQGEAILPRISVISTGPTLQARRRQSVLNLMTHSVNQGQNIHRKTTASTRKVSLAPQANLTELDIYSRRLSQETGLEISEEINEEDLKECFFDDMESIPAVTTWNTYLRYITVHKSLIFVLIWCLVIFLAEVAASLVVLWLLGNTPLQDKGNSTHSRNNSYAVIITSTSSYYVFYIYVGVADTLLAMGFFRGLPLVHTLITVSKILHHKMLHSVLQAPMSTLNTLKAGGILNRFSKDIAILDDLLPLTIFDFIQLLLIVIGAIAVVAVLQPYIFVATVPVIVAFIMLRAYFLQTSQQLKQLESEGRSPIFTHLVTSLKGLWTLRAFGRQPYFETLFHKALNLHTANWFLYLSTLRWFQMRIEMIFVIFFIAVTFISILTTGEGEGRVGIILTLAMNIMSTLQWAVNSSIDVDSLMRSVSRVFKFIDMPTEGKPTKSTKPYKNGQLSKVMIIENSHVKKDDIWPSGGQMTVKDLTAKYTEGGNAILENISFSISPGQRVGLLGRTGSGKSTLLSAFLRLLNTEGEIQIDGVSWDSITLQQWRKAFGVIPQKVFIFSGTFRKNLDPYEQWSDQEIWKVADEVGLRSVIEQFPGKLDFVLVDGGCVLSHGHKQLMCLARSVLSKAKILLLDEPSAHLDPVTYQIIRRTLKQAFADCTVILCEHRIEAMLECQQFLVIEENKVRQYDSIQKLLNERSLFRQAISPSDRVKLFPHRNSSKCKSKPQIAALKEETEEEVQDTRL

SMILES	Nauc @ 1 μM [1]	Nauc @ 3 μM [2]	Nauc @ 10 μM [3]	Nauc @ 1 μM [4]	Nauc @ 3 μM [5]	Nauc @ 10 μM [6]
CN(C(=O)[C@H]1[C@H]2CC(F)(F)CN2[C@]2(C(=O)Nc3c(Cl)cc(Cl)cc32)[C@H]1C(=O)O)c1cc(Cl)cc(Cl)c1F (single isomer, unassigned) [Example 265b]	+ (NAUC “+” refers to an observed NAUC <140% of positive control)	+ (NAUC “+” refers to an observed NAUC <140% of positive control)	+ (NAUC “+” refers to an observed NAUC <140% of positive control)	–	–	–
CC(C)(C)c1cccc(CCNC(=O)C2C3N(CCC3(F)F)C3(C(=O)Nc4c(Cl)cc(Cl)cc43)C2C(=O)O)c1 (single isomer, unassigned) [Example 267, 1′-((3-(tert-butyl)phenethyl)carbamoyl)-5,7-dichloro-7′,7′-difluoro-2-oxo-1′,2′,5′,6′,7′,7a′-hexahydrospiro[indoline-3,3′-pyrrolizine]-2′-carboxylic acid]	+++ (NAUC “+++” refers to an observed NAUC>170% of positive control)	+++ (NAUC “+++” refers to an observed NAUC>170% of positive control)	+++ (NAUC “+++” refers to an observed NAUC>170% of positive control)	–	–	–
CN(C(=O)C1C2N(CCC2(F)F)C2(C(=O)Nc3c(Cl)cc(Cl)cc32)C1C(=O)O)c1cc(Cl)cc(Cl)c1 (single isomer, unassigned) [Example 268a, 5,7-dichloro-1′-((3,5-dichlorophenyl)(methyl)carbamoyl)-7′,7′-difluoro-2-oxo-1′,2′,5′,6′,7′,7a′-hexahydrospiro[indoline-3,3′-pyrrolizine]-2′-carboxylic acid]	+ (NAUC “+” refers to an observed NAUC <140% of positive control)	+ (NAUC “+” refers to an observed NAUC <140% of positive control)	+ (NAUC “+” refers to an observed NAUC <140% of positive control)	–	–	–
CN(C(=O)C1C2N(CCC2(F)F)C2(C(=O)Nc3c(Cl)cc(Cl)cc32)C1C(=O)O)c1cc(Cl)cc(Cl)c1 (single isomer, unassigned) [Example 268b, 5,7-dichloro-1′-((3,5-dichlorophenyl)(methyl)carbamoyl)-7′,7′-difluoro-2-oxo-1′,2′,5′,6′,7′,7a′-hexahydrospiro[indoline-3,3′-pyrrolizine]-2′-carboxylic acid]	+++ (NAUC “+++” refers to an observed NAUC>170% of positive control)	+++ (NAUC “+++” refers to an observed NAUC>170% of positive control)	–	–	–	–
CN(C(=O)[C@@H]1[C@H](C(F)(F)F)NC2(C(=O)Nc3c(Cl)cc(Cl)cc32)[C@@H]1C(=O)O)c1cc(Cl)cc(Cl)c1 (single isomer, unassigned) [Example 269a]	+ (NAUC “+” refers to an observed NAUC <140% of positive control)	+ (NAUC “+” refers to an observed NAUC <140% of positive control)	+ (NAUC “+” refers to an observed NAUC <140% of positive control)	–	–	–
CN(C(=O)[C@H]1[C@@H](C(F)(F)F)NC2(C(=O)Nc3c(Cl)cc(Cl)cc32)[C@H]1C(=O)O)c1cc(Cl)cc(Cl)c1 (single isomer, unassigned) [Example 269b]	+++ (NAUC “+++” refers to an observed NAUC>170% of positive control)	+++ (NAUC “+++” refers to an observed NAUC>170% of positive control)	+++ (NAUC “+++” refers to an observed NAUC>170% of positive control)	++ (NAUC “++” refers to an observed NAUC 170-140% of positive control)	+++ (NAUC “+++” refers to an observed NAUC>170% of positive control)	+++ (NAUC “+++” refers to an observed NAUC>170% of positive control)
O=C(O)[C@@H]1[C@H](C(=O)N(CC2CC2)c2cc(Cl)cc(Cl)c2)[C@H](C(F)(F)F)NC12C(=O)Nc1c(Cl)cc(Cl)cc12 (single isomer, unassigned) [Example 270a]	–	–	–	+++ (NAUC “+++” refers to an observed NAUC>170% of positive control)	+++ (NAUC “+++” refers to an observed NAUC>170% of positive control)	++ (NAUC “++” refers to an observed NAUC 170-140% of positive control)
O=C(O)[C@H]1[C@@H](C(=O)N(CC2CC2)c2cc(Cl)cc(Cl)c2)[C@@H](C(F)(F)F)NC12C(=O)Nc1c(Cl)cc(Cl)cc12 (single isomer, unassigned) [Example 270b]	–	–	–	+ (NAUC “+” refers to an observed NAUC <140% of positive control)	++ (NAUC “++” refers to an observed NAUC 170-140% of positive control)	–
CN(C(=O)C1C2CC(F)(F)CN2C2(C(=O)Nc3c(Cl)cc(Cl)cc32)C1C(=O)O)c1cc(C(F)(F)F)cc(C(F)(F)F)n1 (single isomer, unassigned) [Example 273a, 1′-((4,6-bis(trifluoromethyl)pyridin-2-yl)(methyl)carbamoyl)-5,7-dichloro-6′,6′-difluoro-2-oxo-1′,2′,5′,6′,7′,7a′-hexahydrospiro[indoline-3,3′-pyrrolizine]-2′-carboxylic acid]	–	–	–	+ (NAUC “+” refers to an observed NAUC <140% of positive control)	+ (NAUC “+” refers to an observed NAUC <140% of positive control)	–
CN(C(=O)C1C2CC(F)(F)CN2C2(C(=O)Nc3c(Cl)cc(Cl)cc32)C1C(=O)O)c1cc(C(F)(F)F)cc(C(F)(F)F)n1 (single isomer, unassigned) [Example 273b, 1′-((4,6-bis(trifluoromethyl)pyridin-2-yl)(methyl)carbamoyl)-5,7-dichloro-6′,6′-difluoro-2-oxo-1′,2′,5′,6′,7′,7a′-hexahydrospiro[indoline-3,3′-pyrrolizine]-2′-carboxylic acid]	–	–	–	+ (NAUC “+” refers to an observed NAUC <140% of positive control)	++ (NAUC “++” refers to an observed NAUC 170-140% of positive control)	–
CC(C)(C)CN(C(=O)[C@H]1[C@H]2CC(C)(C)CN2C2(C(=O)Nc3c(Cl)cc(Cl)cc32)[C@H]1C(=O)O)c1cc(Cl)cc(Cl)c1 (single isomer, unassigned) [Example 274.6a, (1′R,2′S,7a′R)-5,7-dichloro-1-((3,5-dichlorophenyl)(neopentyl)carbamoyl)-6′,6′-dimethyl-2-oxo1′,2′,5′,6′,7′,7a′-hexahydrospiro[indoline-3,3′-pyrrolizine]-2′-carboxylic acid]	–	–	–	++ (NAUC “++” refers to an observed NAUC 170-140% of positive control)	+ (NAUC “+” refers to an observed NAUC <140% of positive control)	+ (NAUC “+” refers to an observed NAUC <140% of positive control)
CC(C)(C)CN(C(=O)[C@H]1[C@@H](C(=O)O)C2(C(=O)Nc3c(Cl)cc(Cl)cc32)N2CC(C)(C)C[C@@H]12)c1cc(Cl)cc(Cl)c1 (single isomer, unassigned) [Example 274.6b, (1′S,2′R,7a′S)-5,7-dichloro-1′-((3,5-dichlorophenyl)(neopentyl)carbamoyl)-6′,6′-dimethyl-2-oxo-1′,2′,5′,6′,7′,7a′-hexahydrospiro[indoline-3,3′-pyrrolizine]-2′-carboxylic acid]	–	–	–	+++ (NAUC “+++” refers to an observed NAUC>170% of positive control)	++ (NAUC “++” refers to an observed NAUC 170-140% of positive control)	+ (NAUC “+” refers to an observed NAUC <140% of positive control)
